In the assay the test system is vibrio splendidus. The settings on record: Penaeus vannamei pond. An excerpt: 600,000 of Penaeus vannamei were raised in a pond with 1.1M depth and 1.6 hectare. […] At the next night, the pond was sterilized using the product prepared according to Example 5 with the content of iodine of 0.01 ppm.

With `CSCC[C@H](N)C(=O)O.I` [Example 5, methionine iodine], the killing vibrio splendidus result (content of iodine 0.01 ppm) is “very effective”. Besides, the “time after which glimmering in the pond has disappeared” value (sterilized at content of iodine of 0.01 ppm) was 40 min.

These data come from patent US20030171598A1, “Aminoacid-iodine complex” (priority 2001, published 2003).
